# From patent US11446287B2, “Compounds and methods for EP300 or CBP modulation and indications therefor” (Opna Immuno-Oncology SA, priority 2019, dated 2022)
# Molecular target: T1, Recombinant human CBP containing the bromodomain (CBP-BD (1043-1159)) (Homo sapiens, UniProt Q92793)
# T1 construct: Recombinant human CBP bromodomain (CBP-BD (1043-1159)); made in house; host or cells: E. coli BL21-CodonPlus (DE3), modified pET vector
# Test: CBP Alphascreen binding assay
# Conditions: read-out: CREBBP (CBP) IC50
# Procedure, shortened: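 Buffer: 50 mM HEPES pH 7.5, 50 mM NaCl, 0.01% BSA, 0.01% Triton X-100, 2 mM DTT. The signal was normalised to plate controls and fitted with a four-parameter curve to give IC50.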
# T1 sequence (Q92793 1081-1197): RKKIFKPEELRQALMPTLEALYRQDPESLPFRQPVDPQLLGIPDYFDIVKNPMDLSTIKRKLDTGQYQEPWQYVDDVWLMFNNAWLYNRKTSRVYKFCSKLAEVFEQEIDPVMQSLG
row,SMILES,IC50 [µM]
1,"Cc1noc(C)c1-c1cnc2c(c1)c(-c1ccc(C(=O)O)cc1)cn2[C@@H](C)c1ccccn1 [P-0001, (S)-4-(5-(3,5-dimethylisoxazol-4-yl)-1-(1-(pyridin-2-yl)ethyl)-1H-pyrrolo[2,3-b]pyridin-3-yl)benzoic acid]",0.0001 to 1
2,"Cc1noc(C)c1-c1cnc2c(c1)c(-c1ccc(C(=O)O)cc1)cn2C(c1ccccn1)C1CCCC1 (stereo not shown) [P-0002, 4-(1-(cyclopentyl(pyridin-2-yl)methyl)-5-(3,5-dimethylisoxazol-4-yl)-1H-pyrrolo[2,3-b]pyridin-3-yl)benzoic acid]",0.0001 to 1
3,"Cc1noc(C)c1-c1cnc2c(c1)c(-c1ccccc1)cn2C(c1ccccn1)C1CCCC1 (stereo not shown) [P-0003, 4-(1-(cyclopentyl(pyridin-2-yl)methyl)-3-phenyl-1H-pyrrolo[2,3-b]pyridin-5-yl)-3,5-dimethylisoxazole]",8 to 1000
4,"Cc1noc(C)c1-c1cnc2c(c1)c(-c1ccc(C(=O)O)cc1)cn2C(c1ccccn1)C1CCCCC1 (stereo not shown) [P-0004, 4-(1-(cyclohexyl(pyridin-2-yl)methyl)-5-(3,5-dimethylisoxazol-4-yl)-1H-pyrrolo[2,3-b]pyridin-3-yl)benzoic acid]",0.0001 to 1
5,"COC(=O)c1ccc(-c2cn(S(=O)(=O)c3ccc(C)cc3)c3ncc(-c4c(C)noc4C)cc23)cc1 [P-0005, methyl 4-(5-(3,5-dimethylisoxazol-4-yl)-1-tosyl-1H-pyrrolo[2,3-b]pyridin-3-yl)benzoate]",8 to 1000
6,"Cc1noc(C)c1-c1cnc2c(c1)c(-c1ccnc(C(=O)O)c1)cn2S(=O)(=O)c1ccccc1 [P-0055, 4-(5-(3,5-dimethylisoxazol-4-yl)-1-(phenylsulfonyl)-1H-pyrrolo[2,3-b]pyridin-3-yl)picolinic acid]",0.0001 to 1
7,"COc1cccc(Cn2cc(-c3cccc(C(=O)O)c3)c3cc(-c4c(C)noc4C)cnc32)c1 [P-0056, 3-(5-(3,5-dimethylisoxazol-4-yl)-1-(3-methoxybenzyl)-1H-pyrrolo[2,3-]pyridin-3-yl)benzoic acid]",0.0001 to 1
8,"COc1cccc(Cn2cc(-c3ccnc(C(=O)O)c3)c3cc(-c4c(C)noc4C)cnc32)c1 [P-0057, 4-(5-(3,5-dimethylisoxazol-4-yl)-1-(3-methoxybenzyl)-1H-pyrrolo[2,3-b]pyridin-3-yl)picolinic acid]",0.0001 to 1
9,"Cc1noc(C)c1-c1cnc2c(c1)c(-c1cccc(C(=O)O)c1)cn2C(C1CC1)C1CC1 [P-0058, 3-(1-(dicyclopropylmethyl)-5-(3,5-dimethylisoxazol-4-yl)-1H-pyrrolo[2,3-b]pyridin-3-yl)benzoic acid]",0.0001 to 1
10,"Cc1noc(C)c1-c1cnc2c(c1)c(-c1cccc(C(=O)O)c1)cn2Cc1cccc(OC(F)(F)F)c1 [P-0059, 3-(5-(3,5-dimethylisoxazol-4-yl)-1-(3-(trifluoromethoxy)benzyl)-1H-pyrrolo[2,3-b]pyridin-3-yl)benzoic acid]",0.0001 to 1
11,"Cc1noc(C)c1-c1cnc2c(c1)c(-c1cccc(C(=O)O)c1)cn2Cc1cccc(F)c1 [P-0060, 3-(5-(3,5-dimethylisoxazol-4-yl)-1-(3-fluorobenzyl)-1H-pyrrolo[2,3-b]pyridin-3-yl)benzoic acid]",0.0001 to 1
12,"Cc1noc(C)c1-c1cnc2c(c1)c(-c1cccc(C(=O)O)c1)cn2Cc1cccc(Cl)c1 [P-0061, 3-(1-(3-chlorobenzyl)-5-(3,5-dimethylisoxazol-4-yl)-1H-pyrrolo[2,3-b]pyridin-3-yl)benzoic acid]",0.0001 to 1
13,"Cc1cccc(Cn2cc(-c3cccc(C(=O)O)c3)c3cc(-c4c(C)noc4C)cnc32)c1 [P-0062, 3-(5-(3,5-dimethylisoxazol-4-yl)-1-(3-methylbenzyl)-1H-pyrrolo[2,3-b]pyridin-3-yl)benzoic acid]",0.0001 to 1
14,"Cc1noc(C)c1-c1cnc2c(c1)c(-c1cccc(C(=O)O)c1)cn2Cc1cccc(C(F)(F)F)c1 [P-0063, 3-(5-(3,5-dimethylisoxazol-4-yl)-1-(3-(trifluoromethyl)benzyl)-1H-pyrrolo[2,3-b]pyridin-3-yl)benzoic acid]",0.0001 to 1
15,"Cc1noc(C)c1-c1cnc2c(CC3CCC3)cn(-c3ccc(C(=O)O)cc3OC(F)F)c2c1 [P-0064, 4-(3-(cyclobutylmethyl)-6-(3,5-dimethylisoxazol-4-yl)-1H-pyrrolo[3,2-b]pyridin-1-yl)-3-(difluoromethoxy)benzoic acid]",0.0001 to 1
16,"Cc1noc(C)c1-c1cnc2c(CC3CC3)cn(-c3ccnc(C(=O)O)c3)c2c1 [P-0065, 4-(3-(cyclopropylmethyl)-6-(3,5-dimethylisoxazol-4-yl)-1H-pyrrolo[3,2-b]pyridin-1-yl)picolinic acid]",0.0001 to 1
17,"Cc1noc(C)c1-c1cnc2c(CC3CCC3)cn(-c3ccc(C(=O)O)cc3OC(F)(F)F)c2c1 [P-0066, 4-(3-(cyclobutylmethyl)-6-(3,5-dimethylisoxazol-4-yl)-1H-pyrrolo[3,2-b]pyridin-1-yl)-3-(trifluoromethoxy)benzoic acid]",0.0001 to 1

row,SMILES,IC50 [µM]
1,"COc1cc(C(=O)O)cc(OC)c1-n1cc(CC2CCC2)c2ncc(-c3c(C)noc3C)cc21 [P-0067, 4-(3-(cyclobutylmethyl)-6-(3,5-dimethylisoxazol-4-yl)-1H-pyrrolo[3,2-b]pyridin-1-yl)-3,5-dimethoxybenzoic acid]",0.0001 to 1
2,"Cc1noc(C)c1-c1cnc2c(CC3CCC3)cn(-c3ccc(S(C)(=O)=O)c(F)c3)c2c1 [P-0068, 4-(3-(cyclobutylmethyl)-1-(3-fluoro-4-(methylsulfonyl)phenyl)-1H-pyrrolo[3,2-b]pyridin-6-yl)-3,5-dimethylisoxazole]",0.0001 to 1
3,"Cc1noc(C)c1-c1cnc2c(c1)c(C#CC(=O)O)cn2Cc1ccccc1 [P-0069, 3-(1-benzyl-5-(3,5-dimethylisoxazol-4-yl)-1H-pyrrolo[2,3-b]pyridin-3-yl)propiolic acid]",0.0001 to 1
4,"Cc1noc(C)c1-c1cnc2c(c1)c(-c1ccc(C(=O)O)cc1OC(F)(F)F)cn2[C@@H](C)c1ccccn1 [P-0070, (S)-4-(5-(3,5-dimethylisoxazol-4-yl)-1-(1-(pyridin-2-yl)ethyl)-1H-pyrrolo[2,3-b]pyridin-3-yl)-3-(trifluoromethoxy)benzoic acid]",0.0001 to 1
5,"Cc1noc(C)c1-c1cnc2c(c1)c(-c1ccc(C(=O)O)cc1OC(F)F)cn2[C@@H](C)c1ccccn1 [P-0071, (S)-3-(difluoromethoxy)-4-(5-(3,5-dimethylisoxazol-4-yl)-1-(1-(pyridin-2-yl)ethyl)-1H-pyrrolo[2,3-b]pyridin-3-yl)benzoic acid]",0.0001 to 1
6,"Cc1noc(C)c1-c1cnc2c(c1)c(-c1cccc(C(=O)O)c1)cn2C(C1CCC1)C1CCC1 [P-0072, 3-(1-(dicyclobutylmethyl)-5-(3,5-dimethylisoxazol-4-yl)-1H-pyrrolo[2,3-b]pyridin-3-yl)benzoic acid]",0.0001 to 1
7,"Cc1noc(C)c1-c1cnc2c(c1)c(-c1cccc(C(=O)O)c1)cn2C(c1ccccn1)C1CCC1 (stereo not shown) [P-0073, 3-(1-(cyclobutyl(pyridin-2-yl)methyl)-5-(3,5-dimethylisoxazol-4-yl)-1H-pyrrolo[2,3-b]pyridin-3-yl)benzoic acid]",0.0001 to 1
8,"Cc1noc(C)c1-c1cnc2c(CC3CCC3)cn(-c3c(Cl)cc(C(=O)O)cc3Cl)c2c1 [P-0074, 3,5-dichloro-4-(3-(cyclobutylmethyl)-6-(3,5-dimethylisoxazol-4-yl)-1H-pyrrolo[3,2-b]pyridin-1-yl)benzoic acid]",0.0001 to 1
9,"Cc1cc(C(=O)O)cnc1-n1cc(CC2CCC2)c2ncc(-c3c(C)noc3C)cc21 [P-0075, 6-(3-(cyclobutylmethyl)-6-(3,5-dimethylisoxazol-4-yl)-1H-pyrrolo[3,2-b]pyridin-1-yl)-5-methylnicotinic acid]",0.0001 to 1
10,"Cc1noc(C)c1-c1cnc2c(CC3CCC3)cn(-c3ccc(C#N)cc3)c2c1 [P-0076, 4-(3-(cyclobutylmethyl)-6-(3,5-dimethylisoxazol-4-yl)-1H-pyrrolo[3,2-b]pyridin-1-yl)benzonitrile]",1 to 8
11,"Cc1noc(C)c1-c1cnc2c(CC3CCC3)cn(-c3ccnc(C#N)c3)c2c1 [P-0077, 4-(3-(cyclobutylmethyl)-6-(3,5-dimethylisoxazol-4-yl)-1H-pyrrolo[3,2-b]pyridin-1-yl)picolinonitrile]",0.0001 to 1
12,"Cc1noc(C)c1-c1cnc2c(c1)c(-c1cccc(C(=O)NC#N)c1)cn2Cc1ccccc1 [P-0078, 3-(1-benzyl-5-(3,5-dimethylisoxazol-4-yl)-1H-pyrrolo[2,3-b]pyridin-3-yl)-N-cyanobenzamide]",1 to 8
13,"Cc1noc(C)c1-c1cnc2c(c1)c(-c1cccc(C(=O)NO)c1)cn2Cc1ccccc1 [P-0079, 3-(1-benzyl-5-(3,5-dimethylisoxazol-4-yl)-1H-pyrrolo[2,3-b]pyridin-3-yl)-N-hydroxybenzamide]",0.0001 to 1
14,"Cc1noc(C)c1-c1cnc2c(c1)c(-c1ccc(C(=O)O)cc1)cn2C(C)c1ccccn1 (stereo not shown) [P-0080, 4-(5-(3,5-dimethylisoxazol-4-yl)-1-(1-(pyridin-2-yl)ethyl)-1H-pyrrolo[2,3-b]pyridin-3-yl)benzoic acid]",1 to 8
15,"Cc1noc(C)c1-c1cnc2c(c1)c(-c1cccc(S(N)(=O)=O)c1)cn2Cc1ccccc1 [P-0081, 3-(1-benzyl-5-(3,5-dimethylisoxazol-4-yl)-1H-pyrrolo[2,3-b]pyridin-3-yl)benzenesulfonamide]",1 to 8
16,"CNS(=O)(=O)c1cccc(-c2cn(Cc3ccccc3)c3ncc(-c4c(C)noc4C)cc23)c1 [P-0082, 3-(1-benzyl-5-(3,5-dimethylisoxazol-4-yl)-1H-pyrrolo[2,3-b]pyridin-3-yl)-N-methylbenzenesulfonamide]",8 to 1000
17,"Cc1noc(C)c1-c1cnc2c(c1)c(-c1cccc(S(=O)(=O)NC3CC3)c1)cn2Cc1ccccc1 [P-0083, 3-(1-benzyl-5-(3,5-dimethylisoxazol-4-yl)-1H-pyrrolo[2,3-b]pyridin-3-yl)-N-cyclopropylbenzenesulfonamide]",1 to 8
